{"source": "patent US20240009174A1", "about": "“METHODS FOR DISRUPTING MITOCHONDRIAL UNFOLDED PROTEIN RESPONSE” (Health Research, Inc., priority 2020, published 2024)", "type_in_all_cases": "cell-based", "key": {"[1]": {"tested_on": "HSP60, HSP10, ClpP and LONP1", "assay": "Expression of UPRmt components after DCEM1", "conditions": "PCa cells"}, "[2]": {"tested_on": "LNCaP and PC-3 cells", "assay": "mtDNA damage analysis", "conditions": "24 hours", "description": "FIG. 6. Pharmacological inhibition of HSP60-ClpP interaction induces UPR^mt and PCa cell death. (A) Docking of DCEM1 into apical domain of HSP60. (B) LNCaP and PC-3 cells were treated with DCEM1 for 24 hours and HSP60-ClpP interaction was analyzed by co-immunoprecipitation assay. (C) LNCaP and PC-3 cells were treated with DCEM1 for 24 hours and mitoROS levels were analyzed by flow cytometry using mitoSOX dye. (D) LNCaP and PC-3 cells were treated with DCEM1 for 24 hours and poly-Ub protein levels were analyzed by western blotting. (E) LNCaP and PC-3 cells were treated with DCEM1 for 24 and 48 hours and apoptotic cell populations were analyzed by flow cytometry using Annexin V FITC/PI method as explained in materials and methods. In (E) top panel, the bars in each series from left to right are control, 5, 10, and 20, and in (E) bottom panel, the bars in each series from left to right are DMSO, 5, 10, and 20. (F) LNCaP and PC-3 cells were treated with DCEM1 for 24 and 48 hours and lysates were prepared and analyzed for DEVDase activity using specific peptide substrate. […] (G) LNCaP and PC-3 cells were pre-treated with SKQ1 followed by DCEM1 treatment and analyzed for cell viability by MTT assay. (H) LNCaP and PC-3 cells were treated with either DCEM1 or H2O2 (200 μM) for 24 hours and total DNA were isolated and analyzed for mtDNA damage as described in materials and methods. […]"}, "[3]": {"tested_on": "LNCaP and PC-3 cells", "assay": "Mitochondrial membrane potential (mitoMP)", "description": "FIG. 7. Pharmacological inhibition of HSP60-ClpP interaction induces metabolic stress in PCa cells. (A) LNCaP and PC-3 cells were pre-treated with either rotenone or antimycin-A followed by DCEM1 treatment and mitochondrial ROS was analyzed as described in material and methods (data represented as fold change compared to control). In (A), the bars in each series from left to right are control, DCEM1, Rot+DCEM1, Anti A+DCEM1, Rot, and Anti A (B) ClpP protein was over-expressed in LNCaP and PC-3 cells followed by DCEM1 treatment and mitochondrial ROS was analyzed as described in material and methods (Data represented as fold change compared to control). […] (C) ClpP protein was over-expressed in LNCaP and PC-3 cells followed by DCEM1 treatment and level of poly-ubiquitinated protein was analyzed by western blotting. (D) ClpP protein was over-expressed in LNCaP and PC-3 cells followed by DCEM1 treatment and DEVDase activity was analyzed as described in material and methods (Data represented as fold change compared to control). […] (E) Mitochondrial membrane potential (mitoMP) was analyzed in LNCaP and PC-3 cells treated with DCEM1 as described in material and methods (Data represented as fold change compared to control). […] (F) ATP level was analyzed in LNCaP and PC-3 cells treated with DCEM1 as described in material and methods (Data represented as fold change compared to control). […]"}}, "data": [{"smiles": "CCOc1cc(CNCc2nc3ccccc3[nH]2)ccc1OCc1cccs1", "note": "[DCEM1]", "values": [{"measurement": "expression of UPRmt components HSP60, HSP10, ClpP and LONP1", "setting": "[1]", "value": "failed to alter"}, {"measurement": "mtDNA damage", "setting": "[2]", "value": "Severe mtDNA damage"}, {"measurement": "mitochondrial membrane potential", "setting": "[3]", "value": "robustly depolarized mitochondrial membrane"}]}]}
